Experimental data from patent US7585639B1, “Methods for modulating ATP-binding cassette transmembrane reporter protein expression” (Trustees of Dartmouth College, priority 1999, dated 2009).

What was measured:
[1] = tested on: MDR4, MDR10, MDR29 and parental MDCK-C7 cells; details: dog, 3 days
Method: Cells were plated in 96 well plates (Fisher, Medford, Mass.) at a density of 1000 cells per well. Twenty-four hours after plating, the cells were dosed with 0-10 μM Dox in serum-free media as described above. The cells were incubated for three days and assayed using the CellTiter 96 AQueous One Solution Reagent (Promega Corp., Madison, Wis.) using the manufacturer's instructions. The data were collected and analyzed using the Softmax software. A cytotoxicity assay was also performed with cisplatin (0-30 μM) as described above.

CFTR [2] = experiment: Chloride permeability by MQAE fluorescence, T84 cells; assay type: cell-based
Method: (§1) The correlation between increased levels and increased functional CFTR in the cell membrane was also examined either by measuring chloride permeability using MQAE fluorescence or trans-epithelial chloride currents using the Ussing chamber assay. […] Dox increased total cellular CFTR protein levels by 1.6- to 2-fold in T84 cells, and levels were maximal at approximately 18 to 24 hours after treatment. […] Dox increased the amount of cell surface-detectable CFTR by approximately 2.5- to 3-fold in these cells. Dox treatment of T84 cells was also determined to increase CFTR-associated chloride currents by approximately 2.1-fold as measured by the Using chamber assay and to increase chloride permeability by approximately 2-fold as measured by MQAE fluorescence in these cells.

human ΔF508 CFTR = experiment: Chloride currents in MDCK-derived cell line stably transfected with human ΔF508 CFTR cDNA (CMV promoter); assay type: cell-based; details: MDCK cell line expressing human ΔF508 CFTR; statistically significant
Method: (§2) The ability of Dox to increase functional expression of ΔF508 CFTR in a similar manner was then assessed. In initial experiments, the effects of Dox on ΔF508 CFTR expression were examined in a canine kidney MDCK-derived cell line that had been stably transfected with a human ΔF508 CFTR cDNA construct expressed under the control of a CMV promoter. As controls, the effects of Dox on CFTR expression in the wild-type parental MDCK-C7 cells from which the stable cell line was derived and an MDCK-derived cell line stably transfected with GFP-tagged wild-type human CFTR also under the control of the CMV promoter were examined. Dox had no effect on chloride currents in either controls.

MDCK-C7 cells = experiment: Chloride currents in wild-type parental MDCK-C7 cells (control); assay type: cell-based, canine
Method: as §2

CFTR [3] = experiment: Trans-epithelial chloride currents, Ussing chamber assay, T84 cells; assay type: cell-based
Method: as §1

GFP-Pgp = details: MDR29 cells
[4] = tested on: GFP-tagged wild-type human CFTR; experiment: Chloride currents in MDCK-derived cell line stably transfected with GFP-tagged wild-type human CFTR (control); assay type: cell-based; details: MDCK cells with GFP-tagged wild-type human CFTR
Method: as §2

[5] = tested on: wild-type CFTR mRNA expression; experiment: CFTR mRNA expression in HT-29 human colon cell line; assay type: cell-based; details: HT-29 cells
Method: Experiments were performed which identified specific agents that increase functional cell surface expression of the ΔF508 CFTR protein. […] However, a rapid increase in CFTR mRNA to 1.5-fold over controls was seen by 48 hours and remained high through the end of the experiment.

CFTR protein levels = CFTR protein levels by western blotting using anti-CFTR antibodies in T84 cells; assay type: cell-based
Method: as §1

COc1cccc2c1C(=O)c1c(O)c3c(c(O)c1C2=O)C[C@@](O)(C(=O)CO)C[C@@H]3O[C@H]1C[C@H](N)[C@H](O)[C@H](C)O1 [Dox, doxorubicin]
EC50 for cytotoxicity (colony formation), MDR cell lines relative to parental cell line [1]: 2.5-3.5 fold | increase in chloride permeability (CFTR [2]): approximately 2 fold | increase in chloride currents (human ΔF508 CFTR): approximately 1.7 fold | effect on chloride currents (MDCK-C7 cells): no effect | increase in CFTR-associated chloride currents (CFTR [3]): approximately 2.1 fold | membrane Pgp levels (GFP-Pgp; 24-72 hour period after treatment): progressive and substantial increase | cellular GFP levels (GFP-Pgp; compared with Pgp membrane levels): increased earlier and to a greater extent | effect on chloride currents [4]: no effect

CO[C@@]12[C@H](COC(N)=O)C3=C(C(=O)C(C)=C(N)C3=O)N1C[C@@H]1N[C@@H]12 [MMC, mitomycin C]
effect on CFTR mRNA expression ([5]; between 0 and 36 hours after treatment): Little or no effect | increase in CFTR mRNA over controls ([5]; by 48 hours, remained high through end of experiment): 1.5 fold | CFTR mRNA expression over a 72 hour period ([5]; single non-toxic treatment, over 72 hours): significant increase | mature CFTR protein levels (CFTR protein levels): significantly increased | increase in CFTR-associated chloride currents (CFTR [3]): approximately 1.2 fold
